System: skin-derived precursors (SKPs)
Assay: Neurite outgrowth / morphological evaluation of neuronal differentiation
Assay type: cell-based, rat (neonate Wistar)
Conditions: delivered with TAT PTD, 1 to 5 μM
Procedure: Rodent skin-derived precursor cells (SKPs), which can differentiate to neurons, were used. SKPs were previously isolated from the back dermis of neonate Wistar rats by the authors. These cells were cultured in growth medium composed of DMEM/F12 (1:1; Gibco, Grand Island, NY, USA) containing 2% B27 supplement (Gibco), 20 ng/mL epidermal growth factor (EGF; Upstate Biotechnology, Lake Placid, NY, USA), and 40 ng/mL bFGF (PeproTech EC Ltd., Rocky Hill, NJ, USA) in a humidified incubator at 37 °C with 5% CO2. The floating clusters of cultured cells were centrifuged and dissociated into a single-cell suspension by use of a Pasteur pipette with a flame-polished tip. These single cells were then re-suspended into at a concentration of 50,000 cells/mL for passage or experiments. […]
Neurite outgrowth with length exceeding the diameter of the neuronal soma is often assessed as a morphological index of neuronal differentiation. […] Thereafter, neurite outgrowth was evaluated with the following 4 levels: +++, for above 50% of the cells showing neurite outgrowth; ++, for 20–50% with neurite outgrowth; +, for 5–19% having neurite outgrowth; and −, for below 5% of the cells with neurite outgrowth.

Row | Sequence | Neurite Outgrowth Activity (BC-box motif alone (10-residue) peptides) | Neurite Outgrowth Activity (BC-box motif plus five C-terminal amino acids peptides)
1 | YARAAARQARASLTHLCRLEI [ASB3 BC-box motif alone] | - (below 5% of the cells with neurite outgrowth) | 
2 | YARAAARQARASLTHLCRLEIRSSIK [ASB3 BC-box motif plus five amino acids] |  | ++ (20–50% with neurite outgrowth)
